ChEMBL document CHEMBL1201862, “PubChem BioAssay data set” (2004)
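Test compounds were applied to cells in 96-well plates for 48 hours at 5 doses. The concentration for 50% growth inhibition is given as GI50.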 The source made the active and inactive calls. No stated cut-off is given here; in the data, active = GI50 up to about 1.1 µM and inactive = higher.

Columns and labels:
Experiment in all cases: growth of human tumour cells (NCI), 48 h
[1] = system: NCI-H522
[2] = system: OVCAR-3
[3] = system: M14
[4] = system: KM12
[5] = system: RPMI-8226
[6] = system: OVCAR-4
[7] = system: 786-0
[8] = system: HCT-15
[9] = system: SF-295
[10] = system: HCT-116
[11] = system: UO-31
[12] = system: SK-MEL-28
[13] = system: SK-MEL-2
[14] = system: U-251
[15] = system: MOLT-4
[16] = system: EKVX
[17] = system: LOX IMVI

| SMILES | GI50 [1] | GI50 [2] | GI50 [3] | GI50 [4] | GI50 [5] | GI50 [6] | GI50 [7] | GI50 [8] | GI50 [9] | GI50 [10] | GI50 [11] | GI50 [12] | GI50 [13] | GI50 [14] | GI50 [15] | GI50 [16] | GI50 [17] |
| --- | --- | --- | --- | --- | --- | --- | --- | --- | --- | --- | --- | --- | --- | --- | --- | --- | --- |
| CSc1nc(Cl)c(Br)c(Sc2nc(N)nc3nc[nH]c23)n1 | 1.63 µM (inactive) | 15.2 µM (inactive) | 4.56 µM (inactive) | 5.18 µM (inactive) | 2.25 µM (inactive) | 11 µM (inactive) | 3.27 µM (inactive) | 5.66 µM | 4.72 µM (inactive) | 2.84 µM (inactive) | 5.01 µM (inactive) | 11 µM (inactive) | 4.78 µM (inactive) | 4.48 µM (inactive) | 4.2 µM (inactive) |  |  |
| O=C(/C=C/c1ccccc1Cl)c1ccc(Cl)c(Cl)c1 | 17.3 µM (inactive) | 15.4 µM (inactive) | 17.5 µM (inactive) | 15.8 µM (inactive) | 37.7 µM (inactive) | 12.9 µM (inactive) | 16.3 µM (inactive) | 15.7 µM | 17.3 µM (inactive) | 11.5 µM (inactive) | 17.1 µM (inactive) | 20.2 µM (inactive) | 18 µM (inactive) | 17.3 µM (inactive) | 21.3 µM (inactive) | 14.5 µM (inactive) | 14.6 µM (inactive) |
| Nc1ccc(C(=O)CC2(O)C(=O)Nc3ccccc32)cc1 (configuration not stated) | 29.7 µM (inactive) | > 100 µM (inactive) | > 100 µM (inactive) |  | > 100 µM (inactive) | > 100 µM (inactive) | > 100 µM (inactive) | > 100 µM | > 100 µM (inactive) | > 100 µM (inactive) | > 100 µM (inactive) | > 100 µM (inactive) | > 100 µM (inactive) |  | > 100 µM (inactive) | > 100 µM (inactive) | > 100 µM (inactive) |
| COc1ccc(C(C#N)NNC(=O)c2ccccc2O)cc1OC (configuration not stated) | 3.28 µM (inactive) | 2.55 µM (inactive) | 0.75 µM (active) | 0.807 µM (active) | 4.24 µM (inactive) | 1.7 µM (inactive) | 1.24 µM (inactive) | 0.893 µM | 1.24 µM (inactive) | 0.401 µM (active) | 0.379 µM (active) | 28.6 µM (inactive) | 0.667 µM (active) | 0.45 µM (active) | 3.04 µM (inactive) |  | 0.735 µM (active) |
| Cc1[nH]c2ccccc2c1C(=O)CC1(O)C(=O)Nc2ccccc21 (configuration not stated) |  |  | > 100 µM (inactive) | > 100 µM (inactive) | > 100 µM (inactive) | > 100 µM (inactive) | > 100 µM (inactive) | > 100 µM | > 100 µM (inactive) | > 100 µM (inactive) | > 100 µM (inactive) | > 100 µM (inactive) | 87.7 µM (inactive) | > 100 µM (inactive) | > 100 µM (inactive) | 73.1 µM (inactive) | > 100 µM (inactive) |
| CCOC(=O)C1=C(C)CC2C(=O)OC(=O)C2C1(C)C (configuration not stated) | > 100 µM (inactive) | > 100 µM (inactive) | > 100 µM (inactive) | > 100 µM (inactive) | > 100 µM (inactive) |  | > 100 µM (inactive) | > 100 µM | > 100 µM (inactive) |  | > 100 µM (inactive) | > 100 µM (inactive) | > 100 µM (inactive) | > 100 µM (inactive) | > 100 µM (inactive) | > 100 µM (inactive) |  |
| N#C/C(=C1\N=NC(N)=C(c2ccc(Cl)cc2)C1=O)c1ccc(Cl)cc1 | > 100 µM (inactive) | > 100 µM (inactive) | > 100 µM (inactive) | > 100 µM (inactive) | > 100 µM (inactive) | > 100 µM (inactive) | > 100 µM (inactive) |  | > 100 µM (inactive) | > 100 µM (inactive) | > 100 µM (inactive) | > 100 µM (inactive) |  | > 100 µM (inactive) | > 100 µM (inactive) | > 100 µM (inactive) | > 100 µM (inactive) |
| Cc1nc2c(n1CCO)C(=O)c1ccccc1C2=O | 14.5 µM (inactive) | 24.3 µM (inactive) | 21.4 µM (inactive) | 37.7 µM (inactive) |  | 26.2 µM (inactive) | 46.9 µM (inactive) | 31.5 µM | 48.4 µM (inactive) | 18.9 µM (inactive) | > 100 µM (inactive) | 93.3 µM (inactive) | 18.4 µM (inactive) | 26.5 µM (inactive) | 28.9 µM (inactive) | 55 µM (inactive) | 23.4 µM (inactive) |
| CN(C)C(=S)/N=c1\ssc(=S)n1C1CCCCC1 | 13.1 µM (inactive) |  | 14.7 µM (inactive) | 35.7 µM (inactive) |  | 39.4 µM (inactive) | 17.1 µM (inactive) | 33.1 µM | 60.5 µM (inactive) | 16.5 µM (inactive) | 61.1 µM (inactive) | 36.1 µM (inactive) | 52.8 µM (inactive) | 17 µM (inactive) | 18.2 µM (inactive) | 45.7 µM (inactive) |  |
